Structures are written as SMILES.

In general, IC50 refers to the midpoint of a concentration-inhibition curve. Low values mean greater potency in that assay, high ones weaker potency in that assay.

The target of assay [1] is T1, REL (human c-Rel) (Homo sapiens, UniProt Q04864).
T1 construct: FLAG-tagged human REL expressed in 293 cells
T1 sequence (Q04864 2-619): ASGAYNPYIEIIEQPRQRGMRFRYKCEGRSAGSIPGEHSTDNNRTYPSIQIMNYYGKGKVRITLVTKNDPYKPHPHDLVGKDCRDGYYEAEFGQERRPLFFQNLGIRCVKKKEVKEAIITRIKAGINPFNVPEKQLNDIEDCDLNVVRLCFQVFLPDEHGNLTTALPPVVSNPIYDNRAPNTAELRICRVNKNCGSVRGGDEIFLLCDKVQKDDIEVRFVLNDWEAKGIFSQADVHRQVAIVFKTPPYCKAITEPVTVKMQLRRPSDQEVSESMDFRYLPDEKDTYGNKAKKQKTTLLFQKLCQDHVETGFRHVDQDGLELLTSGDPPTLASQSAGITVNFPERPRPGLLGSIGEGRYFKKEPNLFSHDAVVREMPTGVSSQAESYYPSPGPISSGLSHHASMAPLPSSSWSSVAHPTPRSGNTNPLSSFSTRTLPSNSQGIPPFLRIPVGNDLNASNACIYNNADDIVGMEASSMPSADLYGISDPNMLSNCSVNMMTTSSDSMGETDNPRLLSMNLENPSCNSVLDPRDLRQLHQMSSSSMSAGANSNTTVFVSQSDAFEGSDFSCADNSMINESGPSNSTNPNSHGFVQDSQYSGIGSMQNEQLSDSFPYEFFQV
The assay can be described thus: EMSA of extracts from CM101-treated transfected […] cells; C27S mutant less inhibited; western blot of covalently modified high molecular weight forms. It counts as cell-based. Background: Immunoblotting shows a protein as a band on a membrane.

For assay [2], the target named is T2, p65 (RelA) (Homo sapiens, UniProt Q04206).
T2 construct: FLAG-tagged human p65 expressed in 293 cells
Description: EMSA of extracts from CM101-treated transfected […] cells; C38S mutant less inhibited; western blot of covalently modified high molecular weight forms. It counts as cell-based.

T2 sequence (Q04206 whole entry): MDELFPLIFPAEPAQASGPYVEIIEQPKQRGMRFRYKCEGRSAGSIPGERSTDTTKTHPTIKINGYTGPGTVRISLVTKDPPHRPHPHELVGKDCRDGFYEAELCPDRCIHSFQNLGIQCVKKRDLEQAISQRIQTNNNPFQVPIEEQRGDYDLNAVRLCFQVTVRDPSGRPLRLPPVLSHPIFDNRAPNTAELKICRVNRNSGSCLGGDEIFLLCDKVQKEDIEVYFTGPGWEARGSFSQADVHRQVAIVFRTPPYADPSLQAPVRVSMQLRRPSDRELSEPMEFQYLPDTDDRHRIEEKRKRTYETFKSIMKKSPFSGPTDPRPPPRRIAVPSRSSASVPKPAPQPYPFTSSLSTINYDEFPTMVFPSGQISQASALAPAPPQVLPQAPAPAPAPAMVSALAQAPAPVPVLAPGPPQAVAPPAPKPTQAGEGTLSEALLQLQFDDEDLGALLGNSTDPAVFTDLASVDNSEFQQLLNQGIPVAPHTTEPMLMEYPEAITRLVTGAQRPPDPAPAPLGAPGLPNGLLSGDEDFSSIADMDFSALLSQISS

For `CCOC(=O)C1=NO[C@@]2(C=C(Br)C(=O)[C@H]3O[C@H]32)C1` (mixture of isomers) [CM101], the IC50 in assay [1] and in assay [2] was approximately 10 µM in each case.

Source of the values: publication PMC4863944, “Inhibition of Oncogenic Transcription Factor REL by the Natural Product Derivative Calafianin Monomer 101 Induces Proliferation Arrest and Apoptosis in Human B-Lymphoma Cell Lines” (Molecules, 2015).
